Measured values taken from US10071098B2, “Compositions useful for treating herpes simplex labialis and/or herpes esophagitis, and methods using same” (DREXEL UNIVERSITY, priority 2014, dated 2018).

Tests used:
HSV-1 strain KOS [1] = experiment: HSV-1 replication in OKF6 cells (qPCR genome copy number and viral yield); type: cell-based; details: for HSV-1 replication over time course of lytic infection (genome copy number, viral yield): MOI=0.1, FIGS. 8A-8B; for HSV-1 replication as measured by qPCR and viral yield, dose dependence: MOI=0.1, analysis at 20 hours post infection, FIGS. 7A-7C; for effect on reducing HSV-1 replication when combined with acyclovir: low dose of inhibitor combined with low doses of acyclovir, MOI=0.1, FIGS. 11A-11B
Experimental: (§1) All cells were cultured at 37° C. and 5% CO2 and supplemented with 100 U/mL penicillin and 100 U/mL streptomycin. OKF6/TERT2 human oral mucosal keratinocyte cells were cultured in GIBCO Keratinocyte serum free medium (K-sfm) supplemented with bovine pituitary extract, epidermal growth factor, and calcium chloride (Life Technologies Carlsbad, Calif.). These cells are immortalized by expression of hTERT (Dickson, et al., 2000, Mol. Cell. Biol. 20(4):1436-1447). EPC2 human esophageal epithelial cells were cultured in K-sfm (Carlsbad, Calif.). KOS strain (Smith, Proc. Soc. Exp. Biol. Med. Soc. Exp. Biol. Med. 115:814-816) of HSV-1 was used in all infections. All viral stocks were titered on CV-1 monolayers.
(§2) Subconfluent monolayers of cells were grown in six-well plates. Drug treatments were administered 60 minutes prior to infection and continued for the entire duration of each experiment. Infections with KOS strain of HSV-1 were carried out in six-well plates in a 200 μL inoculum volume at 37° C. for 1 hour with intermittent rocking. The cells were then rinsed and overlaid with fresh medium.
(§3) Unless indicated otherwise, KU-55933 (Batch No. 5, 99.7% purity; Tocris Bioscience, Bristol, UK) and Chk2 Inhibitor II (Sigma-Aldrich, St. Louis, Mo.) were used at 10 μM final concentration, phosphonoacetic acid (PAA) at 400 μg/mL (Sigma-Aldrich, St. Louis, Mo.), and acyclovir at 50 μg/mL (Sigma-Aldrich). KU-55933 and Chk2 Inhibitor II were dissolved in dimethyl sulfoxide (DMSO), and the final concentration of DMSO for KU-55933, Chk2 Inhibitor II, and mock treatments for all in vitro experiments was 0.1%.
(§4) Viral genome replication and transcription were measured by quantitative PCR (qPCR). Total DNA and RNA from infected cells were isolated using the DNeasy Blood & Tissue Kit and the RNeasy Mini Kit, respectively (QIAGEN, Hilden, Germany). RNA was converted to cDNA using qScript (Quanta BioSciences, Gaithersburg, Md.). Real-time qPCR was performed with SYBR Green (Bio-Rad, Hercules, Calif.). Target primers for UL30 (DNA polymerase catalytic subunit) and reference primers for glyceraldehyde 3-phosphate dehydrogenase (GAPDH) were used to measure genome replication. Transcription of the three gene families was measured with primers for RL2 (ICP0), UL30 (DNA polymerase catalytic subunit), UL23 (thymidine kinase), and UL44 (gC), with reference primers for the 18S ribosomal RNA (rRNA).

HSV-1 strain KOS [2] = experiment: Protein synthesis of HSV-1 factors in infected OKF6 cells (Western blot); type: cell-based; details: for protein synthesis of HSV-1 early gene ICP8 / protein synthesis of HSV-1 immediate early gene ICP0 / protein synthesis of HSV-1 leaky-late gene gB / protein synthesis of HSV-1 true-late gene gC: MOI=5, FIGS. 9A-9B; for gC level, inhibitor applied before infection or up to 1 hour post infection / gC level, inhibitor applied between 2 to 3 hours post infection: MOI=5, FIGS. 10A-10B; for gC level, inhibitor applied 4 hours post infection: MOI=5, compared to wild type infection, FIGS. 10A-10B
Experimental: as §1
Subconfluent monolayers of cells were grown in six-well plates. […] Infections with KOS strain of HSV-1 were carried out in six-well plates in a 200 μL inoculum volume at 37° C. for 1 hour with intermittent rocking. The cells were then rinsed and overlaid with fresh medium.
as §3
Standard protocol was followed for Western blot analysis. Cell lysates were collected in 200 μL Laemmli buffer, vortexed, and boiled at 95° C. for 5 minutes. Protein concentrations were measured by bicinchoninic acid (BCA) assay. SDS-PAGE was followed by transfer onto a polyvinylidene difluoride (PVDF) membrane, which was then blocked in 5% BSA. Primary antibodies against the following proteins were used: ICP0 (mouse monoclonal; Virusys Corporation, Taneytown, Md.), ICP4 and nucleolin (both mouse monoclonal; Santa Cruz Biotechnology, Santa Cruz, Calif.), ICP8 (rabbit polyclonal), glycoprotein B and C (mouse monoclonal and rabbit polyclonal, respectively), ATM and pATM S1981 (rabbit polyclonal and mouse monoclonal, respectively; Rockland), Chk2 and pChk2 T68 (rabbit polyclonal and mouse monoclonal, respectively; Cell Signaling). Blots were stained with secondary antibodies and visualized with the Odyssey near-infrared system (LI-COR, Lincoln, Nebr.).

HSV-1 strain KOS [3] = experiment: Transcription of HSV-1 genes in infected OKF6 cells (qPCR); type: cell-based; details: for effect on viral early factor thymidine kinase: MOI=0.1, FIGS. 9C-9E; for transcription of true-late gene gC: qPCR, MOI=0.1, FIG. 9E
Experimental: as §1, §2, §3, §4

[4] = system: acyclovir-resistant strain of HSV-1, dlspTK; experiment: Replication of acyclovir-resistant HSV-1 in OKF6 cells; type: cell-based; details: MOI=0.1, FIGS. 12A-12B
HSV-1 = experiment: In vivo model of HSV-1 lip infection (herpes simplex labialis) in mice; details: BALB/c mice infected on the lower lip; applied every 4 hours for first 12 hours, then every 8 hours for 5 days; FIGS. 13A-13B
Experimental: KU-55933 and Chk2 Inhibitor II were also efficacious at reducing HSV-1 in an in vivo model of infection (FIGS. 13A-13B). BALB/c mice were infected with HSV-1 on the lower lip, and KU-55933 or Chk2 Inhibitor II was applied every 4 hours for the first 12 hours post infection followed by treatments every 8 hours for the next 5 days. The mice were scored based on the severity of the symptoms, and tracked over the course of infection.

ATM = ATM activation in HSV-1-infected OKF6 cells (Western blot); type: cell-based, human; details: MOI=5.0, FIG. 6
Experimental: All cells were cultured at 37° C. and 5% CO2 and supplemented with 100 U/mL penicillin and 100 U/mL streptomycin. OKF6/TERT2 human oral mucosal keratinocyte cells were cultured in GIBCO Keratinocyte serum free medium (K-sfm) supplemented with bovine pituitary extract, epidermal growth factor, and calcium chloride (Life Technologies Carlsbad, Calif.). […] KOS strain (Smith, Proc. Soc. Exp. Biol. Med. Soc. Exp. Biol. Med. 115:814-816) of HSV-1 was used in all infections. All viral stocks were titered on CV-1 monolayers.
Unless indicated otherwise, KU-55933 (Batch No. 5, 99.7% purity; Tocris Bioscience, Bristol, UK) and Chk2 Inhibitor II (Sigma-Aldrich, St. Louis, Mo.) were used at 10 μM final concentration, phosphonoacetic acid (PAA) at 400 μg/mL (Sigma-Aldrich, St. Louis, Mo.), and acyclovir at 50 μg/mL (Sigma-Aldrich). […]
Standard protocol was followed for Western blot analysis. […] Protein concentrations were measured by bicinchoninic acid (BCA) assay. […]

NC(=O)c1ccc2[nH]c(-c3ccc(Oc4ccc(Cl)cc4)cc3)nc2c1 [Chk2 Inhibitor II, 2-(4-(4-chlorophenoxy)phenyl)-1H-benzimidazole-5-carboxamide]
HSV-1 replication over time course of lytic infection (genome copy number, viral yield) (HSV-1 strain KOS [1]): reduced HSV-1 replication throughout the entire time course of lytic infection
HSV-1 replication as measured by qPCR and viral yield, dose dependence (HSV-1 strain KOS [1]): reduced HSV-1 replication in a dose dependent manner
effect on reducing HSV-1 replication when combined with acyclovir (HSV-1 strain KOS [1]): additive to greater-than-additive effect
protein synthesis of HSV-1 early gene ICP8 (HSV-1 strain KOS [2]): no impact
protein synthesis of HSV-1 immediate early gene ICP0 (HSV-1 strain KOS [2]): no impact
protein synthesis of HSV-1 leaky-late gene gB (HSV-1 strain KOS [2]): no impact
protein synthesis of HSV-1 true-late gene gC (HSV-1 strain KOS [2]): large reduction
gC level, inhibitor applied before infection or up to 1 hour post infection (HSV-1 strain KOS [2]): large reduction of gC
gC level, inhibitor applied between 2 to 3 hours post infection (HSV-1 strain KOS [2]): Low levels of gC were produced
gC level, inhibitor applied 4 hours post infection (HSV-1 strain KOS [2]): no impact on gC levels
effect on viral early factor thymidine kinase (HSV-1 strain KOS [3]): minimal effect
transcription of true-late gene gC (HSV-1 strain KOS [3]): prevent the transcription
replication (genome copy numbers) of acyclovir-resistant HSV-1 strain dlspTK [4]: greatly reduced replication
severity of symptoms (score) during the time course of infection (HSV-1): statistically significant decrease in the severity of symptoms

O=c1cc(-c2cccc3c2Sc2ccccc2S3)oc(N2CCOCC2)c1 [KU-55933, 2-(morpholin-4-yl)-6-(thianthren-1-yl)-pyran-4-one]
ATM activation (ATM): inhibited ATM activation
HSV-1 replication over time course of lytic infection (genome copy number, viral yield) (HSV-1 strain KOS [1]): reduced HSV-1 replication throughout the entire time course of lytic infection
HSV-1 replication as measured by qPCR and viral yield, dose dependence (HSV-1 strain KOS [1]): reduced HSV-1 replication in a dose dependent manner
effect on reducing HSV-1 replication when combined with acyclovir (HSV-1 strain KOS [1]): additive to greater-than-additive effect
protein synthesis of HSV-1 early gene ICP8 (HSV-1 strain KOS [2]): no impact
protein synthesis of HSV-1 immediate early gene ICP0 (HSV-1 strain KOS [2]): no impact
protein synthesis of HSV-1 leaky-late gene gB (HSV-1 strain KOS [2]): no impact
protein synthesis of HSV-1 true-late gene gC (HSV-1 strain KOS [2]): large reduction
gC level, inhibitor applied before infection or up to 1 hour post infection (HSV-1 strain KOS [2]): large reduction of gC
gC level, inhibitor applied between 2 to 3 hours post infection (HSV-1 strain KOS [2]): Low levels of gC were produced
gC level, inhibitor applied 4 hours post infection (HSV-1 strain KOS [2]): no impact on gC levels
effect on viral early factor thymidine kinase (HSV-1 strain KOS [3]): minimal effect
transcription of true-late gene gC (HSV-1 strain KOS [3]): reduction
replication (genome copy numbers) of acyclovir-resistant HSV-1 strain dlspTK [4]: greatly reduced replication
severity of symptoms (score) during the time course of infection (HSV-1): statistically significant decrease in the severity of symptoms
